Numbered stars: 1 amine (or outer) side, 2 acyl side, 3 side chain; on linkers, the order of the positions; unused ones are H or OH. Square brackets hold non-standard residues; d marks the D form. Peptide text beside a SMILES is read from it. Cit = NC(=O)NCCC[C@H](N)C(=O)O; X1 = CN(C)CC(N[*:1])C(=O)[*:2]
How the values were obtained:
MMP2 = molecular target: T1, MMP2 (Homo sapiens, UniProt P08253); assay: Enzymolysis assay of polypeptides by MMP2 (RP-HPLC); format: biochemical; conditions: test polypeptide 100 µmol, activated MMP2, 37°C, 4 h
T1 sequence (P08253 110-660): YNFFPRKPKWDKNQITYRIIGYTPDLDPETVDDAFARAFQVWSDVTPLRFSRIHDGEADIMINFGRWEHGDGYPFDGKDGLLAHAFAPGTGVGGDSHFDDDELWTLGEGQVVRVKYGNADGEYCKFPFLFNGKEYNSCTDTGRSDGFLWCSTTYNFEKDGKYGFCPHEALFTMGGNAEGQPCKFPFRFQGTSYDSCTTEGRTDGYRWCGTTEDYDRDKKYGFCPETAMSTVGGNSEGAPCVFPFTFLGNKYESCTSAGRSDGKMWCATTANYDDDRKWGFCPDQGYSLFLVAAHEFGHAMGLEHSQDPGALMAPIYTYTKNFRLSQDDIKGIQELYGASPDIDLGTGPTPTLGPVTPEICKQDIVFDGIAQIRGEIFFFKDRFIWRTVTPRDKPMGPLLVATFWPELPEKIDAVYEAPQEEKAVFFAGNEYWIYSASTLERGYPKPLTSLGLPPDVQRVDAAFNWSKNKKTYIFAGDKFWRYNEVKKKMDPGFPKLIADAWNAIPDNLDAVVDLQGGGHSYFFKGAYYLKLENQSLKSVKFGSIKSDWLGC
Procedure: (§1) First, MMP2 or MMP9 enzyme solution having a final concentration of 200 µg/mL was mixed with 4 mM APMA at a ratio of 1:1, placed in a 37°C water bath and incubated for 24 h to activate the MMP2 or MMP9 enzyme solution. Subsequently, the test polypeptide having a final concentration of 100 µmol was incubated with the activated MMP2 or MMP9 enzyme solution in a 37°C water bath for 4 h. After the reaction was complete, an equal volume of acetonitrile solution was added thereto, followed by RP-HPLC analysis.
(§2) The enzymolysis efficiency of the polypeptide was calculated based on the peak areas of the target peak before and after enzymolysis. The formula is as follows: Enzymolysis efficiency = […] [formula]

MMP9 = MMP9 (Homo sapiens, UniProt P14780); assay: Enzymolysis assay of polypeptides by MMP9 (RP-HPLC); format: biochemical; conditions: polypeptide 100 µmol with activated MMP9, 37°C, 4 h, RP-HPLC peak areas
Procedure: as §1, §2

Chain of MMP9 (P14780 107-707 limits assumed, species assumed): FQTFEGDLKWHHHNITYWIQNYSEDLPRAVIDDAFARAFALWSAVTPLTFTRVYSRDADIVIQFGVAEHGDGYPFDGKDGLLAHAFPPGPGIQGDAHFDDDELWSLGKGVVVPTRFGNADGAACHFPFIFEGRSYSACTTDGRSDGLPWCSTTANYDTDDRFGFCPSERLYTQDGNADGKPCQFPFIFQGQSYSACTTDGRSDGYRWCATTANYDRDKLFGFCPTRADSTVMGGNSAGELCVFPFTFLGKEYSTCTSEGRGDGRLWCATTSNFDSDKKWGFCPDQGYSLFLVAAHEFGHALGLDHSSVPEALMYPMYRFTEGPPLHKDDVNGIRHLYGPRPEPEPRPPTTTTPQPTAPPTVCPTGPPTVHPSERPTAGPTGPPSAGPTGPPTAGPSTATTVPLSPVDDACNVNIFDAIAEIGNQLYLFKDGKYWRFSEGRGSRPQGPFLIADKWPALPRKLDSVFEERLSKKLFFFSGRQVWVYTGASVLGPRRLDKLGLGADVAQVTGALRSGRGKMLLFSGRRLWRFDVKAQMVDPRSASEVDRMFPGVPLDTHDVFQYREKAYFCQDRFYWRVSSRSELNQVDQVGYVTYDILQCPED

Row | Enzymolysis efficiency (%) (MMP2) | Enzymolysis efficiency (%) (MMP9) | Compound
1 | 33.63 | 59.39 | CC(=O)N[C@@H](CO)C(=O)N1CCC[C@H]1C(=O)N[C@@H](CCCNC(N)=O)C(=O)N[C@@H](CO)C(=O)N[C@@H](CC(C)C)C(=O)N[C@H](C(=O)N[C@@H](CCCNC(N)=O)C(N)=O)C(C)C [Compound 2-P23] (Ac-SP[Cit]SLV[Cit]-NH2)
2 | 90.13 | 45.08 | CC(=O)NCC(=O)N1CCC[C@H]1C(=O)N[C@@H](CO)C(=O)N[C@@H](C)C(=O)N[C@@H](CC(C)C)C(=O)N[C@H](C(=O)N[C@@H](CCCNC(N)=O)C(N)=O)C(C)C [Compound 1-P13] (Ac-GPSALV[Cit]-NH2)
3 | 62.64 | 77.95 | CC(=O)NCC(=O)N1CCC[C@H]1C(=O)N[C@@H](CCCNC(=N)N)C(=O)N[C@@H](CO)C(=O)N[C@@H](CC(C)C)C(=O)N[C@H](C(=O)N[C@@H](CCCNC(N)=O)C(N)=O)C(C)C [Compound 2-P7] (Ac-GPRSLV[Cit]-NH2)
4 | 70.46 | 95.84 | CC(=O)N[C@@H](CO)C(=O)N1CCC[C@H]1C(=O)N[C@@H](CCCNC(=N)N)C(=O)N[C@@H](CC(N)=O)C(=O)N[C@@H](CC(C)C)C(=O)N[C@H](C(=O)N[C@@H](CCCNC(N)=O)C(N)=O)C(C)C [Compound 2-P21] (Ac-SPRNLV[Cit]-NH2)
5 | 80.31 | 93.67 | CC(=O)N1CCC[C@H]1C(=O)N[C@@H](CCCNC(=N)N)C(=O)NCC(=O)N[C@@H](CC(C)C)C(=O)N[C@H](C(=O)N[C@@H](CCCNC(N)=O)C(N)=O)C(C)C [Compound 2-P1, PRGLVCit] (Ac-PRGLV[Cit]-NH2)
6 | 54.65 | 58.33 | CC(=O)N[C@@H](Cc1c[nH]cn1)C(=O)N1CCC[C@H]1C(=O)N[C@@H](CCCNC(=N)N)C(=O)N1CCC[C@H]1C(=O)N[C@@H](CC(C)C)C(=O)N[C@H](C(=O)N[C@@H](CCCNC(N)=O)C(N)=O)C(C)C [Compound 2-P14] (Ac-HPRPLV[Cit]-NH2)
7 | 82.72 | 37.81 | Ac-GPSGLGGFG-NH2 [Compound 1-P22]
8 | 63.27 | 94.69 | CC(=O)N[C@@H](Cc1c[nH]cn1)C(=O)N1CCC[C@H]1C(=O)N[C@@H](CCCNC(=N)N)C(=O)N[C@@H](CC(N)=O)C(=O)N[C@@H](CC(C)C)C(=O)N[C@H](C(=O)N[C@@H](CCCNC(N)=O)C(N)=O)C(C)C [Compound 2-P15] (Ac-HPRNLV[Cit]-NH2)
9 | 54.71 | 29.30 | CC(=O)NCC(=O)N1CCC[C@H]1C(=O)N[C@@H](CCC(N)=O)C(=O)NCC(=O)N[C@@H](CC(C)C)C(=O)N[C@H](C(=O)N[C@@H](CCCNC(N)=O)C(N)=O)C(C)C [Compound 1-P8] (Ac-GPQGLV[Cit]-NH2)
10 | 77.58 | 95.73 | CC(=O)N[C@@H](Cc1c[nH]cn1)C(=O)N1CCC[C@H]1C(=O)N[C@@H](CCCNC(=N)N)C(=O)NCC(=O)N[C@@H](CC(C)C)C(=O)N[C@H](C(=O)N[C@@H](CCCNC(N)=O)C(N)=O)C(C)C [Compound 2-P12] (Ac-HPRGLV[Cit]-NH2)
11 | 42.87 | 48.98 | CC(=O)N[C@@H](Cc1c[nH]cn1)C(=O)N1CCC[C@H]1C(=O)N[C@@H](CCCNC(N)=O)C(=O)N1CCC[C@H]1C(=O)N[C@@H](CC(C)C)C(=O)N[C@H](C(=O)N[C@@H](CCCNC(N)=O)C(N)=O)C(C)C [Compound 2-P17] (Ac-HP[Cit]PLV[Cit]-NH2)
12 | 52.03 | 54.80 | CC(=O)NCC(=O)N1CCC[C@H]1C(=O)N[C@@H](CC(C)C)C(=O)N[C@@H](CO)C(=O)N[C@@H](CC(C)C)C(=O)N[C@H](C(=O)N[C@@H](CCCNC(N)=O)C(N)=O)C(C)C [Compound 1-P5] (Ac-GPLSLV[Cit]-NH2)
13 | 71.24 | 80.34 | CC(=O)NCC(=O)N1CCC[C@H]1C(=O)N[C@@H](CCCNC(N)=O)C(=O)NCC(=O)N[C@@H](CC(C)C)C(=O)N[C@H](C(=O)N[C@@H](CCCNC(N)=O)C(N)=O)C(C)C [Compound 2-P10] (Ac-GP[Cit]GLV[Cit]-NH2)
14 | 11.78 | 4.86 | Ac-HVLNLGGFG-NH2 [Compound 1-P14]
15 | 61.03 | 68.91 | CC(=O)N1CCC[C@H]1C(=O)N[C@@H](CCCNC(N)=O)C(=O)NCC(=O)N[C@@H](CC(C)C)C(=O)N[C@H](C(=O)N[C@@H](CCCNC(N)=O)C(N)=O)C(C)C [Compound 2-P5] (Ac-P[Cit]GLV[Cit]-NH2)
16 | 90.29 | 25.55 | CC(=O)NCC(=O)N1CCC[C@H]1C(=O)N[C@@H](C)C(=O)NCC(=O)N[C@@H](CC(C)C)C(=O)N[C@H](C(=O)N[C@@H](CCCNC(N)=O)C(N)=O)C(C)C [Compound 1-P7] (Ac-GPAGLV[Cit]-NH2)
17 | 49.85 | 51.44 | CC(=O)N[C@H](C(=O)N1CCC[C@H]1C(=O)N[C@@H](CC(C)C)C(=O)N[C@@H](CO)C(=O)N[C@@H](CC(C)C)C(=O)N[C@H](C(=O)N[C@@H](CCCNC(N)=O)C(N)=O)C(C)C)C(C)C [Compound 1-P3] (Ac-VPLSLV[Cit]-NH2)
18 | 55.07 | 62.58 | CC(=O)NCC(=O)N1CCC[C@H]1C(=O)N[C@@H](CCCNC(=N)N)C(=O)N1CCC[C@H]1C(=O)N[C@@H](CC(C)C)C(=O)N[C@H](C(=O)N[C@@H](CCCNC(N)=O)C(N)=O)C(C)C [Compound 2-P8] (Ac-GPRPLV[Cit]-NH2)
19 | 86.72 | 28.79 | CC(=O)NCC(=O)N1CCC[C@H]1C(=O)N[C@@H](C)C(=O)N[C@@H](CO)C(=O)N[C@@H](CC(C)C)C(=O)N[C@H](C(=O)N[C@@H](CCCNC(N)=O)C(N)=O)C(C)C [Compound 1-P6] (Ac-GPASLV[Cit]-NH2)
20 | 9.00 | 10.53 | CC(=O)NCC(=O)N1CCC[C@H]1C(=O)N[C@@H](CCCNC(=N)N)C(=O)NCC(=O)NC(CN(C)C)C(=O)N[C@H](C(=O)N[C@@H](CCCNC(N)=O)C(N)=O)C(C)C (stereo partly drawn) [Compound 2-P27] (Ac-GPRG[X1]V[Cit]-NH2)
21 | 36.21 | 36.08 | CC(=O)N1CCC[C@H]1C(=O)N[C@@H](CCCNC(N)=O)C(=O)N1CCC[C@H]1C(=O)N[C@@H](CC(C)C)C(=O)N[C@H](C(=O)N[C@@H](CCCNC(N)=O)C(N)=O)C(C)C [Compound 2-P6] (Ac-P[Cit]PLV[Cit]-NH2)
22 | 77.00 | 100.00 | CC(=O)NCC(=O)N1CCC[C@H]1C(=O)N[C@@H](CCCNC(=N)N)C(=O)N[C@@H](CC(N)=O)C(=O)N[C@@H](CC(C)C)C(=O)N[C@H](C(=O)N[C@@H](CCCNC(N)=O)C(N)=O)C(C)C [Compound 2-P9] (Ac-GPRNLV[Cit]-NH2)

Row | Compound | Enzymolysis efficiency (%) (MMP2) | Enzymolysis efficiency (%) (MMP9)
23 | CC(=O)N[C@@H](CO)C(=O)N1CCC[C@H]1C(=O)N[C@@H](CCCNC(=N)N)C(=O)N1CCC[C@H]1C(=O)N[C@@H](CC(C)C)C(=O)N[C@H](C(=O)N[C@@H](CCCNC(N)=O)C(N)=O)C(C)C [Compound 2-P20] (Ac-SPRPLV[Cit]-NH2) | 52.52 | 57.87
24 | Ac-GPSALGGFG-NH2 [Compound 1-P25] | 83.12 | 38.53

Reference: patent EP4796557A1, “POLYPEPTIDE, BIOACTIVE CONJUGATE, AND PREPARATION METHOD THEREFOR AND USE THEREOF” (priority 2023, dated 2025)
